Measured values as given in patent US6905680B2, “Methods of treating HIV infected subjects” (Genetics Institute, Inc., priority 1994, dated 2005).

Key:
CD28^+ T cells = test: Lymphokine production by CD28+ T cells, ELISA 24 h (Table 3); type: cell-based, human; conditions: no CHO cells
Method: All values were assessed by using dilutions of culture supernatant that yielded read-outs within the linear portion of the standard curve. The cytokine production data is summarized below in Table 3.

CD4^+ T cells [1] = test: Lymphokine production by CD4+ T cells (Table 4); type: cell-based, human
Text: (§1) To assess whether distinct T cell subsets might differentially respond to B7-1 or B7-2, CD28^+ T cells were divided into CD28^+CD4^+ and CD28^+CD8^+cells and into CD4^+CD45RO^+ and CD4^+CD45RA+subsets. To obtain CD28^+CD4^+ or CD28^+CD8^+ T cells, the CD28^+ T cells were subjected to a second round of negative selection using magnetic beads (Dynal) coated with CD8 or CD4 mAb as described in June et al. (1989) J. Immunol. 143:153. CD4^+CD45RO^+ and CD4^+CD45RA^+ subpopulations were isolated by subjecting CD28^+ T cells to negative selection using magnetic beads and anti-CD45RO monoclonal antibody UCHL1 or anti-CD45RA monoclonal antibody ALB11 (Immuntech). […]

CD8^+ T cells = test: Lymphokine production by CD8+ T cells (Table 4); type: cell-based, human
Text: as §1

[2] = tested on: CD28-induced IL-2 production; conditions: cited from earlier work
CD4^+ T cells [3] = test: Long term growth of CD4+ T cells with coated beads (Example 19); type: cell-based, human; conditions: CD4 and CD8^+ T cells
Method: CD28^+ T cells were divided into the CD4 and CD8^+ T cell subsets as described in Example 13. […] No cytokine or feeder cells were added to these cultures, and the cultures were maintained as described in Example 1.

human CD28 = target: T1, human CD28 (human, UniProt P10747 19-220); test: immunofluorescence on Jurkat cells (CD28+ CTLA4-)
T1 construct: whole, on cells; also called CD28 on CHO-hh (CHO-HH) cells; CD28 on Jurkat #7 cells

Q: Which results are given for “αCD3 only: plastic immobilized anti-CD3 mAb (OKT3) alone”?
A: GM-CSF (CD28^+ T cells): 280 pg/mL; IFN-γ (CD28^+ T cells): 280 pg/mL; IL-2 (CD28^+ T cells): <60 pg/mL; IL-4 (CD28^+ T cells): <20 pg/mL; TNFα (CD28^+ T cells): 380 pg/mL; GM-CSF (CD4^+ T cells [1]): 9770 pg/mL; IFN-γ (CD4^+ T cells [1]): 1270 pg/mL; IL-2 (CD4^+ T cells [1]): 93 pg/mL; GM-CSF (CD8^+ T cells): 8900 pg/mL; IFN-γ (CD8^+ T cells): 1620 pg/mL; IL-2 (CD8^+ T cells): 133 pg/mL

Q: Which “effect on CD28-induced IL-2 production” value [2] does the source give for CO[C@H]1[C@@H](OC)C[C@H](C)[C@@H](OC)C2=CC(=O)C=C(NC(=O)/C(C)=C/C=C\[C@H](OC)[C@@H](OC(N)=O)/C(C)=C/[C@@H]1C)C2=O [herbimycin A] here?
A: Its value is “can inhibit”.

Q: For OKT3 only: beads coated with OKT3 alone, which “time to death of the cells” value (CD4^+ T cells [3]) is on record?
A: Its value is at most 1 week.

B1: human B7-2Ig fusion protein (Fc fusion)
chain: APLKIQAYFNETADLPCQFANSQNQSLSELVVFWQDQENLVLNEVYLGKEKFDSVHSKYMGRTSFDSDSWTLRLHNLQIKDKGLYQCIIHHKKPTGMIRIHQMNSELSVLANFSQPEIVPISNITENVYINLTCSSIHGYPEPKKMSVLLRTKNSTIEYDGIMQKSQDNVTELYDVSISLSVSFPDVTSNMTIFCILETDKTRLLSSPFSIELEDPQPPPDH
notes: not shown: Fc portion of human IgG1
Q: Does B1 bind (human CD28)?
A: Result: binds
